According to patent publication US20050148570A1, “Novel substituted alkane compounds and uses thereof” (priority 2001, published 2005):
Converted amounts (≈) assume the structure as drawn.

Tests used:
S. aureus = assay: MIC, broth dilution method; format: cell-based; conditions: Staphylococcus aureus; read-out: Antibacterial Activity against S. aureus MIC
Description: (§1) Antibacterial activity can be determined by several standard methods well known by those skilled in the art, including disc diffusions methods, broth dilution minimal inhibitory concentration (MIC) methods, etc., including the detailed method outlined below. Cultures of bacteria are initially brought up from the freezer by streaking a loopful onto agar plates under the appropriate conditions. For instance stocks are streaked onto chocolate agar and then incubated for 18 hours at 35-37° C. in a 5% CO2 incubator. Five to 10 colonies are picked from the chocolate agar plate for subculture to Brain-Heart Infusion (BHI) broth or Mueller Hinton broth or BHI containing 4% serum and incubated under the appropriate conditions. The ability of the test compound to act as an antimicrobial is determined by the ability to inhibit bacterial, algae, or fungal growth in vitro. The optical density of the culture of organisms in the presence of an active compound is compared to the optical density of the same organism untreated. The activity of the compounds is described as either negative or the lowest concentration inhibiting growth.

C. diphtheriae = assay: MIC, broth dilution method; format: cell-based; conditions: Corynebacterium diphtheriae, read-out: MIC Anti-Bacterial Activity
Description: as §1

E. faecalis = assay: MIC, broth dilution method; format: cell-based; conditions: Enterococcus faecalis, read-out: MIC Anti-Bacterial Activity
Description: as §1

H. influenzae = assay: MIC, broth dilution method; format: cell-based; conditions: Haemophilus influenzae, read-out: MIC Anti-Bacterial Activity
Description: as §1

M. catarrhalis = assay: MIC, broth dilution method; format: cell-based; conditions: Moraxella catarrhalis, read-out: MIC Anti-Bacterial Activity
Description: as §1

M. smegimatis = assay: MIC, broth dilution method; format: cell-based; conditions: read-out: MIC Anti-Bacterial Activity
Description: as §1

S. epidermidis = assay: MIC, broth dilution method; format: cell-based; conditions: Staphylococcus epidermidis, read-out: MIC Anti-Bacterial Activity
Description: as §1

S. pneumoniae = assay: MIC, broth dilution method; format: cell-based; conditions: Streptococcus pneumoniae, read-out: MIC Anti-Bacterial Activity
Description: as §1

S. pyogenes = assay: MIC, broth dilution method; format: cell-based; conditions: Streptococcus pyogenes, read-out: MIC Anti-Bacterial Activity
Description: as §1

| Structure (SMILES) | MIC (S. aureus) | melting point | MIC (C. diphtheriae) | MIC (E. faecalis) | MIC (H. influenzae) | MIC (M. catarrhalis) | MIC (M. smegimatis) | MIC (S. epidermidis) | MIC (S. pneumoniae) | MIC (S. pyogenes) |
| --- | --- | --- | --- | --- | --- | --- | --- | --- | --- | --- |
| C[C@H]1[C@H](CC(C)(C)C)CC1(c1ccc(O)cc1)c1ccc(O)cc1 (relative stereo) [Example 13, Trans-1,1-di(4-hydroxyphenyl)-3-(2,2-dimethylpropyl)-2-methylcyclobutane] | 3.1 µg/mL (≈ 9.55 µM) | – | – | – | – | – | – | – | – | – |
| C[C@H]1[C@@H](CC(C)(C)C)CC1(c1ccc(O)cc1)c1ccc(O)cc1 (relative stereo) [Example 14, Cis-1,1-di(4-hydroxyphenyl)-3-(2,2-dimethylpropyl)-2-methylcyclobutane] | 0.8 µg/mL (≈ 2.47 µM) | 79 to 81 °C | – | – | – | – | – | – | – | – |
| C[C@H]1[C@H](CC(C)(C)C)CC1(c1ccc(O)c(Cl)c1)c1ccc(O)c(Cl)c1 (relative stereo) [Example 26, Trans-1,1-Di(3-chloro-4-hydroxyphenyl)-3-(2,2-dimethylpropyl)-2-methylcyclobutane] | 0.8 µg/mL (≈ 2.03 µM) | 126 to 128 °C | – | – | – | – | – | – | – | – |
| Cc1cc(C2(c3cc(C)c(O)c(Cl)c3)C[C@@H](CC(C)(C)C)[C@@H]2C)cc(Cl)c1O (relative stereo) [Example 27, Trans-1,1-di(5-chloro-4-hydroxy-3-methylphenyl)-3-(2,2-dimethylpropyl)-2-methylcyclobutane] | 0.8 µg/mL (≈ 1.9 µM) | – | – | – | – | – | – | – | – | – |
| Cc1cc(C2(c3cc(C)c(O)c(Cl)c3)C[C@@H](CC(C)(C)C)[C@@H]2C)ccc1O (relative stereo) [Example 28, Trans-1-(4-hydroxy-3-methylphenyl)-1-(5-chloro-4-hydroxy-3-methylphenyl)-3-(2,2-dimethylpropyl)-2-methylcyclobutane] | 6.2 µg/mL (≈ 16 µM) | 138 to 140 °C | – | – | – | – | – | – | – | – |
| CCCC1CC(c2ccc(O)c(C)c2)(c2ccc(O)c(C)c2)C1 [Example 1, 1,1-Bis(4-hydroxy-3-methylphenyl)-3-n-propyl-cyclobutane] | 1 µg/mL (≈ 3.22 µM) | 130 to 132 °C | 2 µg/mL (≈ 6.44 µM) | 3 µg/mL (≈ 9.66 µM) | 1 µg/mL (≈ 3.22 µM) | 2 µg/mL (≈ 6.44 µM) | 3 µg/mL (≈ 9.66 µM) | 2 µg/mL (≈ 6.44 µM) | 6 µg/mL (≈ 19.3 µM) | 6 µg/mL (≈ 19.3 µM) |
| CCCC1CC(c2ccc(O)cc2)(c2ccc(O)cc2)C1 [Example 3, 1,1-Bis(4-hydroxyphenyl)-3-n-propyl-cyclobutane] | 8 µg/mL (≈ 28.3 µM) | – | 6 µg/mL (≈ 21.2 µM) | 13 µg/mL (≈ 46 µM) | 13 µg/mL (≈ 46 µM) | 3 µg/mL (≈ 10.6 µM) | 6 µg/mL (≈ 21.2 µM) | 6 µg/mL (≈ 21.2 µM) | 6 µg/mL (≈ 21.2 µM) | 13 µg/mL (≈ 46 µM) |
| CCCC1CC(c2ccc(O)cc2)(c2ccc(O)c(Cl)c2)C1 (stereo not shown) [Example 4, 1-(4-Hydroxyphenyl)-1-(4-hydroxy-3-chloro-phenyl)-3-n-propyl-cyclobutane] | 2 µg/mL (≈ 6.31 µM) | – | 2 µg/mL (≈ 6.31 µM) | 3 µg/mL (≈ 9.47 µM) | 6 µg/mL (≈ 18.9 µM) | 1 µg/mL (≈ 3.16 µM) | 2 µg/mL (≈ 6.31 µM) | 2 µg/mL (≈ 6.31 µM) | 3 µg/mL (≈ 9.47 µM) | 13 µg/mL (≈ 41 µM) |
| CCCC1CC(c2ccc(O)c(Cl)c2)(c2ccc(O)c(Cl)c2)C1 [Example 5, 1,1-Bis(4-hydroxy-3-chloro-phenyl)-3-n-propyl-cyclobutane] | 1 µg/mL (≈ 2.85 µM) | 103 to 105 °C | 1 µg/mL (≈ 2.85 µM) | 2 µg/mL (≈ 5.69 µM) | 3 µg/mL (≈ 8.54 µM) | 1 µg/mL (≈ 2.85 µM) | 1 µg/mL (≈ 2.85 µM) | 1 µg/mL (≈ 2.85 µM) | 3 µg/mL (≈ 8.54 µM) | 13 µg/mL (≈ 37 µM) |
| CCCCC1CC(c2ccc(O)cc2)(c2ccc(O)cc2)C1 [Example 6, 1,1-Bis(4-hydroxyphenyl)-3-n-butyl-cyclobutane] | 4 µg/mL (≈ 13.5 µM) | – | 3 µg/mL (≈ 10.1 µM) | 3 µg/mL (≈ 10.1 µM) | 13 µg/mL (≈ 43.9 µM) | 3 µg/mL (≈ 10.1 µM) | 3 µg/mL (≈ 10.1 µM) | 3 µg/mL (≈ 10.1 µM) | 6 µg/mL (≈ 20.2 µM) | 13 µg/mL (≈ 43.9 µM) |
| CCCCC1CC(c2ccc(O)cc2)(c2ccc(O)c(Cl)c2)C1 (stereo not shown) [Example 7, 1-(4-Hydroxyphenyl)-1-(4-hydroxy-3-chlorophenyl)-3-n-butyl-cyclobutane] | 1 µg/mL (≈ 3.02 µM) | – | 2 µg/mL (≈ 6.04 µM) | 2 µg/mL (≈ 6.04 µM) | 6 µg/mL (≈ 18.1 µM) | 1 µg/mL (≈ 3.02 µM) | 1 µg/mL (≈ 3.02 µM) | 1 µg/mL (≈ 3.02 µM) | 3 µg/mL (≈ 9.07 µM) | 6 µg/mL (≈ 18.1 µM) |
| CCCCC1CC1(c1ccc(O)c(C)c1)c1ccc(O)c(C)c1 (stereo not shown) [Example 10, 1,1-Bis(4-hydroxy-3-methylphenyl)-2-n-butylcyclopropane] | 3 µg/mL (≈ 9.66 µM) | – | – | – | – | – | – | – | – | – |
| CC(C)(C)CC1CC(c2ccc(O)cc2)(c2ccc(O)cc2)C1 [Example 11, 1,1-Di(4-hydroxyphenyl)-3-(2,2-dimethylpropyl)cyclobutane] | 12.5 µg/mL (≈ 40.3 µM) | 182 to 184 °C | – | – | – | – | – | – | – | – |
| Cc1cc(C2(c3ccc(O)c(C)c3)CC(CC(C)(C)C)C2)ccc1O [Example 12, 1,1-Di(4-hydroxy-3-methylphenyl)-3-(2,2-dimethylpropyl)cyclobutane] | 1.6 µg/mL (≈ 4.73 µM) | 175 to 176 °C | – | – | – | – | – | – | – | – |
| Cc1cc(C2(c3ccc(O)c(C)c3)CC(C(C)(C)C)C2)ccc1O [Example 16, 1,1-Di-(4-hydroxy-3-methylphenyl)-3-(1,1-dimethylethyl)cyclobutane] | 0.8 µg/mL (≈ 2.47 µM) | – | – | – | – | – | – | – | – | – |
